The test system of one series is MDA-MB-231. Briefly: NCI-DTP 60 cell line screen, MDA-MB-231. The class given is cell-based. The settings on record: read-out: GI50 MDA-MB-231, data provided by NCI-DTP, NA=not active.
Another series relates to IGROV-1. Briefly: NCI 60 cell line screen, IGROV-1. The class given is cell-based, human. The settings on record: read-out: GI50 IGROV-1, IGROV-1, Ovarian.
Another series has as its system U25-1. As to the kind of experiment: NCI 60 cell line screen, U25-1. The class given is cell-based. The settings on record: read-out: GI50 U25-1, U25-1, CNS.
The test system of another series is NCI-H522. Briefly: NCI 60 cell line screen, NCI-H522. Type of series: cell-based. The settings on record: read-out: GI50 NCI-H522, NCI-H522, Lung.
The test system of a further series is DU-145. Briefly: NCI 60 cell line screen, DU-145. Type of series: cell-based. The settings on record: read-out: GI50 DU-145, DU-145, Prostate.
A further series deals with A498. As to the kind of experiment: NCI 60 cell line screen, A498. Type of series: cell-based, human. The settings on record: read-out: GI50 A498, A498, Renal.
Another series relates to LOX-IMVI. Briefly: NCI 60 cell line screen, LOX-IMVI. Type of series: cell-based, human. The settings on record: read-out: GI50 LOX-IMVI, Melanoma.
Another series has as its system HCT-116. Briefly: NCI-DTP 60 cell line screen, HCT-116. Type of series: cell-based. The settings on record: read-out: GI50 HCT-116, data provided by NCI-DTP, NA=not active.
The subject of the next series is NCI 60 cell lines. As to the kind of experiment: NCI 60 cell line screen, single dose and overall cytotoxicity. Type of series: cell-based.
In a further series the test system is HCT-116 cells. As to the kind of experiment: Clonogenic dose-response analysis. The class given is cell-based.
The subject of a further series is PC-3. The settings on record: read-out: GI50 PC-3; human prostate carcinoma cell line PC-3; cited from earlier work.
The test system of a further series is LnCap. The settings on record: read-out: GI50 LnCap; human prostate carcinoma cell line LnCap; cited from earlier work.
A further series concerns TSU-Pr1. The settings on record: read-out: GI50 TSU-Pr1; human prostate carcinoma cell line TSU-Pr1; cited from earlier work.

In the case of (+)-jasplakinolide Z3 [Compound 11], the GI50 with MDA-MB-231 stood at 740 nM; in the series on IGROV-1, 170 nM; in the series with U25-1, 50 nM; in the series with NCI-H522, 40 nM; with DU-145 it was 3720 nM; in the series with A498 it was 440 nM. In the series with LOX-IMVI, the GI50 was found to be 160 nM.

On to (+)-jasplakinolide V [Compound 13], for which the GI50 came to 70 nM in the series on HCT-116; 90 nM in the series with MDA-MB-231; 30 nM in the series with IGROV-1; 40 nM with U25-1; 60 nM in the series on NCI-H522; 80 nM in the series on DU-145. Besides, the figures for the GI50 with A498 and in the series with LOX-IMVI were 10 nM and 7 nM, respectively.

In the case of “jasplakinolide B [Compound 3, reference compound]”, the GI50 in the series with MDA-MB-231 came to 40 nM.

Turning to (+)-jasplakinolide Z1 [Compound 9], the GI50 with MDA-MB-231 amounted to 2500 nM; in the series on IGROV-1, 1760 nM; in the series on U25-1 it was 600 nM; in the series on NCI-H522, 120 nM; in the series on DU-145, 18800 nM; with LOX-IMVI, 280 nM.

Take jasplakinolide Q [Compound 7]: the GI50 with HCT-116 turned out to be 50 nM; in the series on MDA-MB-231, 70 nM; in the series on IGROV-1, 10 nM; with U25-1, 30 nM; in the series on NCI-H522, 160 nM; in the series with DU-145, 100 nM. In addition, the GI50 in the series with A498 was found to be 80 nM; with LOX-IMVI, 20 nM.

On to jasplakinolide J [Compound 5], for which the GI50 in the series on HCT-116 was 110 nM; with MDA-MB-231, 260 nM; in the series with IGROV-1 it was 20 nM; with U25-1, 50 nM; in the series on NCI-H522 it was 610 nM; in the series on DU-145, 290 nM. In addition, the values for the GI50 in the series on A498 and in the series on LOX-IMVI were 210 nM and 30 nM, respectively. Moreover, the “Diminished cytotoxicity (summary in the conclusions)” value in the series on NCI 60 cell lines is “≈ 1 uM”.

Take jasplakinolide [Compound 1]: in the series on HCT-116 cells (HCT-116, clonogenic, continuous exposure for seven days), the “Concentration achieving the desired therapeutic effect (90% kill of tumor cells)” value was determined as 0.004 µM. Also, the “Toxicity to HCT-116 cells in the clonogenic assay” value with HCT-116 cells (two hour and 24 hour dosing schedules) is reported as “Little toxicity”. Besides, the GI50 was 65 nM with PC-3, 41 nM in the series on LnCap and 170 nM in the series with TSU-Pr1.

One may read the GI50 as the concentration that inhibits growth by half.

The record behind these values is paper PMC3070360 (Journal of natural products, 2011).
